Where a name gives a salt, the structure may show the parent alone.
What was measured:
A549 = test: Cytotoxicity against human A549 cells assessed as cell growth inhibition by SRB assay; format: functional, cell-based
HL-60 = test: Cytotoxicity against human HL-60 cells assessed as cell growth inhibition incubated for 72 hrs by CCK8 assay; format: functional, cell-based; conditions: HL-60, 72 h

Structure (SMILES) | IC50 (A549) [nM] | IC50 (HL-60) [nM]
C=C[C@@](C)(O)[C@H]1C[C@H]2C(=CC[C@H]3C(C)(C)CCC[C@]23C)C(=O)O1 | > 10000 | 2800
C=C[C@](C)(O)[C@H]1C[C@H]2C(=CC[C@H]3C(C)(C)CCC[C@]23C)C(=O)O1 | > 10000 | 2600
C=C[C@](C)(O)[C@@H]1C[C@H]2C(=CC[C@H]3C(C)(C)CCC[C@]23C)C(=O)O1 | > 10000 | 2400
C=C[C@@](C)(O)[C@@H]1C[C@H]2C(=CC[C@H]3C(C)(C)CCC[C@]23C)C(=O)O1 | > 10000 | 1500
COc1cccc2c1C(=O)c1c(O)c3c(c(O)c1C2=O)C[C@@](O)(C(=O)CO)C[C@@H]3O[C@H]1C[C@H](N)[C@H](O)[C@H](C)O1 [DOXORUBICIN HYDROCHLORIDE] | 850 | 

Reference: ChEMBL document CHEMBL5055670, “Sublyratins A-O, Labdane-Type Diterpenoids from Croton sublyratus” (J Nat Prod, 2021)
